From publication PMC12682947, “Identification of New KCNT1‐Epilepsy Drugs by In Silico, Cell, and Drosophila Modeling” (Annals of Neurology, 2025)
Counter-ions that a name gives are not always drawn.

Experiments:
[1] = tested on: Drosophila KCNT1 mutant line R928C; experiment: Bang-sensitive behavioral seizure assay, Drosophila KCNT1 mutant line R928C; type: in vivo, Drosophila melanogaster; settings: drug in food
Description: (§1) The Drosophila melanogaster lines carrying the WT human KCNT1 transgene (NM_020822_3) or KCNT1 mutant G288S, R398Q or R928C transgene placed downstream of the yeast UAS promoter, have been described previously.[11] WT or mutant human UAS‐KCNT1 flies were crossed to flies expressing the GAL4 transcriptional activator under the control of the GAD1 promoter (GABAergic driver, Bloomington stock number 51630 P2) to drive expression of KCNT1 in GABAergic neurons, involved in neuronal inhibition.[11]
(§2) The bang‐sensitive behavioral assay (also known as the banging assay) was used to test for the presence of a seizure phenotype in Drosophila.[11], [30] Experiments were performed and scored, as previously described,[11] with a minimum of 50 Drosophila tested for each genotype and drug concentration.
(§3) Four drugs were selected for in vivo analysis to determine their effects on the seizure phenotypes in transgenic Drosophila lines with human mutant KCNT1 channels. […]
(§4) In all experiments, experimenters were not blinded to variants or treatments, nor were samples randomly assigned to groups. Sample sizes were not calculated in advance and no data were excluded from the analysis. Data were analyzed using GraphPad Prism 9 software (San Diego, CA, USA). […] All data passed normality and lognormality Shapiro–Wilk tests, determined by GraphPad Prism 9. […]

[2] = tested on: Drosophila KCNT1 mutant line R398Q; experiment: Bang-sensitive behavioral seizure assay, Drosophila KCNT1 mutant line R398Q; type: in vivo, Drosophila melanogaster; settings: drug in food
Description: as §1, §2, §3, §4

O=C(OCCN1CCN(c2cccc(C(F)(F)F)c2)CC1)c1ccccc1Nc1ccnc2cc(C(F)(F)F)ccc12 [antrafenine]
reduction of the seizure phenotype [1]: 25%
reduction of the seizure phenotype [2]: at least 50%

Cc1c(O)cccc1C(=O)N[C@@H](CSc1ccccc1)[C@H](O)CN1C[C@H]2CCCC[C@H]2C[C@H]1C(=O)NC(C)(C)C [nelfinavir mesylate]
reduction of the seizure phenotype [1]: 50%
reduction of the seizure phenotype [2]: 50%
